Assay results reported in patent US8846665B2, “6,7-dihydro-[1,3,4]thiadiazolo-[3,2-a][1,3]diazepin derivative and pharmaceutical composition containing the same as neuromuscular blocker or skeletal muscle relaxant, and method for the preparation” (King Saud University, priority 2011, dated 2014).
Values joined by “and” are separate entries in the source; they are usually repeats but may differ in a detail not shown here. Equal values may be shown once. Read-outs that look alike come from different tables or passages of the source.

Experiments:
[1] = tested on: rat tibialis electrically-induced twitches; assay: Neuromuscular blocking activity in rats (sciatic nerve-tibialis twitch); assay type: in vivo; conditions: for Time for 100% Reversal / Time of onset of Reversal: after physostigmine; for ED50 (mmole/kg i.p.): dose producing 50% reduction of the rat tibialis twitch; for Duration of the Block / Time of 50% Block / Time of 90% Block / Time of onset of Block: rat tibialis twitches; for Effect of Physostigmine: reversal of block by physostigmine, single bolus
4-day old chicks = assay: Neuromuscular blocking activity in chicks (head drop, type of paralysis); assay type: in vivo, chick
Procedure: Adult male Wistar rats (250 g) and 4-day old chicks (50 g) were used to conduct the neuromuscular blocking activity evaluation. They were housed in cages and kept at a temperature of 20±2° C. and a relative humidity of 55±5% with a light-dark cycle of 12 h. The animals were provided with Purina rodent's chow pellets supplied by Grain silos and Flour Mills Organization, Riyadh, Saudi Arabia and had both food and water ad libitum. The chicks were bought from the local market in Riyadh. Male Wistar rats (250 g) were randomly divided into various groups (N=4-8 animals). The animals were prepared following modifications of the reported method (Henning, R. Br. J. Pharmacol. 1993, 108, 717-720; Thesleff, S. et al, J. Pharmacol. Expt. Ther. 1954, 111, 99-118). Test drugs, standards or vehicles were administered intraperitoneal dissolved in dimethyl sulfoxide, or water as appropriate in various doses 1-100 mg/kg. In all experiments a control group was included and received intraperitoneal injections of the test compounds' vehicle. […] Also the dose that produced 90% of twitches depression was calculated. The response of the muscle to titanic stimulation was tested before administration of any drug and following 90% inhibition of the twitches.
Intraperitoneal administration of compounds of the formula 1 in single doses ranged from of 0.15-0.3 mmoles/kg, induced flaccid paralysis of the chicks within 1-15 minutes. The paralysis started with head movement and drop; then complete flaccid paralysis occurred. The onset of head drops were ranged from 15 sec-11 minutes whereas the flaccid paralysis ranged from 1-15 minutes following administration. Atracurium and Succinylcholine were used as positive controls. The mechanism of action of compounds of the formula 1 was similar but with more rapid onset of action than that of Atracurium; and almost similar to that of Succinylcholine. Representative example is shown in Example 4.
The effects of GS-53 and the standard drugs Succinylcholine and Atracurium were administered to 4-day old chicks to confirm the mode of the neuromuscular blockade (Buttle, G. et al, J. Pharm. Pharmacol. 1949, 1, 991-992; Thesleff, S. et al, J. Pharmacol. Expt. Ther. 1954, 111, 99-118; ELTahir, K. Guide to Drug Discovery, 2008, Riyadh, KSA). […] Intraperitoneal administration of GS-53 in single dose of 0.15 mmoles/kg, induced flaccid paralysis of the chicks within one minute. The paralysis started with head movement and drop; then complete flaccid paralysis occurred. The onset of head drop was 15 sec whereas the flaccid paralysis was one minute following administration. Atracurium and Succinylcholine were used as positive controls. The mechanism of action GS-53 seemed to be similar but with more rapid onset of action than that of Atracurium; and almost similar to that of Succinylcholine (Table 2).

[2] = Determination of the lethal dose (LD50); conditions: male, mouse, in vivo, ip, male mice, intraperitoneal
Procedure: The LD50 values of compounds of formula 1 were performed. Compounds were given intraperitoneally in doses ranging from 0.1-5 mmole/kg. […] All behavioral changes and death during the observation periods were recorded. The percentage of death at each dose level was then calculated, and the LD50 values were obtained (Ghosh, M., Fundamentals of Experimental Pharmacology, Scientific Book Agency, Calcutta. 1984, pp 153-158, 187-189). The Therapeutic Index of each compound was calculated following the determination of the effective neuromuscular blocking dose. Representative example is shown in Example 5.
Male mice were divided into various groups and GS-53 was administered in various doses ranging from 0.1-5 mmole/kg, intraperitoneal. […] All behavioral changes and death during the observation periods were recorded.

[3] = literature classification, cited from earlier work; for Onset of action: following bolus i.v. administration
[4] = single dose of 0.15 mmoles/kg i.p.

SMILES | Time for 100% Reversal [1] | Time of onset of Reversal [1] | ED50 (mmole/kg i.p.) ([1]; i.p.) | Duration of the Block ([1]; i.p.) | Time of 50% Block ([1]; i.p.) | Time of 90% Block ([1]; i.p.) | Time of onset of Block ([1]; i.p.) | Effect of Physostigmine [1] | ED50 (mmole/kg i.p.) (4-day old chicks; i.p.) | Mechanism of action (4-day old chicks; i.p.) | Onset of head drop (4-day old chicks; i.p.) | Onset of muscle relaxation (4-day old chicks; i.p.) | Type of neuromuscular paralysis (4-day old chicks; i.p.) | Onset of action [3] | Duration [3] | other results
COc1ccc(CC2c3cc(OC)c(OC)cc3CC[N+]2(C)CCC(=O)OCCCCCOC(=O)CC[N+]2(C)CCc3cc(OC)c(OC)cc3C2Cc2ccc(OC)c(OC)c2)cc1OC (centres unmarked) [Atracurium] | 3 ± 0.4 min | 2.0 min | 0.016 mmol/kg | 30 ± 6 min | 8 ± 0.2 min | 12 ± 1.3 min | 5 ± 0.8 min | 100% Reversal | 0.016 mmol/kg | Competitive | 5 ± 0.8 min | 10 ± 0.8 min | Flaccid | – | – | –
O=C1CCCN2N=C(c3ccc(Br)cc3)SC2=N1 [GS-53, (E)-2-(4-bromophenyl)-6,7-dihydro-[1,3,4]thiadiazolo[3,2-a][1,3]diazepin-8(5H)-one] | 6 ± 1.2 min | 1.0 min | 0.15 mmol/kg | 70 ± 12 min | 7 ± 0.6 min | 10 ± 3 min | 3 ± 0.9 min | completely reversed and 100% Reversal | 0.15 mmol/kg | Competitive | 0.25 ± 0.1 min | 1 ± 0.08 min | Flaccid | – | – | ED50 (mmole/kg i.p.), value in brackets in mg ([1]; i.p., rat tibialis twitch): 48.6 mg; Duration of action relative to Atracurium ([1]; rat, ratio of durations of block): 2.3 times; ED50 (mmole/kg i.p.), value in brackets in mg (4-day old chicks; i.p.): 48.6 mg/kg; Onset of flaccid paralysis (4-day old chicks; [4]): one; Onset of head drop (4-day old chicks; [4]): 0.25 min; LD50 at 72 h ([2]; observation 72 hours, read-out: LD50): 195 mg/kg; LD50 at 72 h ([2]; read-out: LD50 95% confidence limits): 185 to 205 mg/kg
COc1cc2c(cc1OC)[C@H](c1cc(OC)c(OC)c(OC)c1)[N@@+](C)(CCCOC(=O)/C=C(\Cl)C(=O)OCCC[N@+]1(C)CCc3cc(OC)c(OC)cc3[C@H]1Cc1cc(OC)c(OC)c(OC)c1)CC2 [Gantacurium] | – | – | – | – | – | – | – | – | – | – | – | – | – | within a minute | 5 min | –
C[N+](C)(C)CCOC(=O)CCC(=O)OCC[N+](C)(C)C [Succinylcholine] | – | – | 0.03 mmol/kg | 20 ± 1.8 min | 3 ± 0.1 min | 5 ± 0.2 min | 2 ± 0.1 min | No Reversal | 0.03 mmol/kg | Depolarizing | – | 0.5 ± 0.02 min | Spastic | within a minute | 5 min | –
